The text below walks through data of US9217012B2, “Inhibitors of protein tyrosine phosphatases” (Indiana University Research and Technology Corporation, priority 2009, dated 2015).

As a reminder, the Ki is the dissociation constant of the complex between target and ligand, obtained from inhibition or displacement.

The target of one assay is PTP1B (Homo sapiens (Human), UniProt P18031). In words: PTP activity assay with pNPP substrate, PTP1B. The assay is classed as biochemical. As to the method:
The PTP activity was assayed using p-nitrophenyl phosphate (pNPP) as a substrate in DMG buffer at 25° C. […] The reaction rate was measure using a SPECTRAMAX microplate spectrophotometer (Molecular Devices). For the determination of Km, the initial velocity and substrate concentration data were fitted to Michaelis-Menten equation using SIGMAPLOT. […] The assays were performed in 96-well plates. […] The reaction rate was measured using a Spectra Max Plus 384 Microplate Spectrophotometer (Molecular Devices). […] The reactions were incubated at room temperature for 30 min and quenched with 5N NaOH. The absorbance at 405 nm was read on the SpectraMax Plus 384 Microplate Spectrophotometer. For the reversibility test, the enzyme was incubated with the inhibitor at room temperature for 30 min before pNPP was added to initiate the reaction. The reaction was then incubated at room temperature for 30 min and quenched and read. […] Data were fitted using SigmaPlot Enzyme Kinetics Module (Systat Software, Inc.)

In another assay the target is SHP2 (Homo sapiens (Human), UniProt Q06124). In words: PTP selectivity panel (pNPP), SHP2. The assay is classed as biochemical. As to conditions: Table 3. As to the method:
(§1) PTP activity was assayed using p-nitrophenyl phosphate (pNPP) as a substrate in DMG buffer (50 mM DMG, pH 7.0, 1 mM EDTA, 150 mM NaCl, 2 mM DTT, 0.1 mg/mL BSA) at 25° C. The assays were performed in 96-well plates. Normally, to determine the IC50 values, the reaction was initiated by the addition of enzyme (final concentration of 10 nM) to a reaction mixture (0.2 mL) containing 2 mM (Km for the substrate) pNPP with various concentrations of inhibitors. The reaction rate was measured using a Spectra Max Plus 384 Microplate Spectrophotometer (Molecular Devices). For compound 10, the final TC-PTP concentration was 0.04 nM. The reactions were incubated at room temperature for 30 min and quenched with 5N NaOH. The absorbance at 405 nm was read on the SpectraMax Plus 384 Microplate Spectrophotometer. For the reversibility test, the enzyme was incubated with the inhibitor at room temperature for 30 min before pNPP was added to initiate the reaction. The reaction was then incubated at room temperature for 30 min and quenched and read. […] To determine the mode of inhibition, the reactions were initiated by the additional enzyme (final concentration for TC-PTP was 0.4 nM and for PTP was 2 nM) to the reaction mixtures (0.2 mL) containing various concentrations of pNPP with different concentrations of the inhibitor. Data were fitted using SigmaPlot Enzyme Kinetics Module (Systat Software, Inc.)

The next assay deals with He-PTP (Homo sapiens (Human), UniProt P35236). Put plainly: PTP selectivity panel (pNPP), He-PTP. Format: biochemical. As to conditions: Table 3. The protocol:
as §1

A further assay concerns the target Lyp (Homo sapiens (Human), UniProt Q9Y2R2). In words: PTP selectivity panel (pNPP), Lyp. The settings on record: Table 3. The assay is classed as biochemical. As to the method:
as §1

In the next assay the target is FAP1 (Homo sapiens (Human), UniProt Q12923). Put plainly: PTP selectivity panel (pNPP), FAP1. As to conditions: Table 3. Format: biochemical. As to the method: as §1
The next assay deals with PTP-Meg2 (Homo sapiens (Human), UniProt P43378). Put plainly: PTP selectivity panel (pNPP), PTP-Meg2. The settings on record: Table 3. The assay is classed as biochemical. The protocol: as §1
Another assay deals with PTPα (Homo sapiens (Human), UniProt P18433). In words: PTP selectivity panel (pNPP), PTPα. Format: biochemical. The settings on record: Table 3. The protocol: as §1
Another assay deals with LAR (Homo sapiens (Human), UniProt P10586). Put plainly: PTP selectivity panel (pNPP), LAR. Format: biochemical. As to conditions: Table 3. As to the method:
as §1

The next assay concerns the target Cdc14A (Homo sapiens (Human), UniProt Q9UNH5). In words: PTP selectivity panel (pNPP), Cdc14A. The assay is classed as biochemical. The settings on record: Table 3. The protocol:
as §1

The target in the next assay is VHR (Homo sapiens (Human), UniProt P51452). In words: PTP selectivity panel (pNPP), VHR. The assay is classed as biochemical. The settings on record: Table 3. As to the method: as §1
A further assay deals with VHX (Homo sapiens (Human), UniProt Q9NRW4). In words: PTP selectivity panel (pNPP), VHX. The assay is classed as biochemical. As to conditions: Table 3. As to the method: as §1
The next assay deals with LMWPTP (Homo sapiens (Human), UniProt P24666). In words: PTP selectivity panel (pNPP), LMWPTP. Format: biochemical. The settings on record: Table 3. The protocol: as §1
Assay [1] relates to Src phosphorylation in PTP1B−/− mouse embryo fibroblast cells. In words: Effect on Src phosphorylation (pSrc416, pSrc527 immunoblot). The assay is classed as cell-based. As to conditions: 2 h treatment. As to the method: To study the effect of compound 10 on Src phosphorylation, PTP1B^−/− mouse embryo fibroblast cells were grown to 80% confluence before being treated with TC-PTP inhibitor 10 for 2 h. Cells were lysed, and the lysates were cleared by centrifugation at 15 000 rpm for 10 min. 30 μg of total proteins were boiled with sample buffer, separated by SDS-PAGE, transferred electrophoretically to a PVDF membrane, and immunoblotted with anti-pSrc416, anti-pSrc527 antibodies (Invitrogen 44-660G and 44-662G) and antic-Src antibody (Cell Singling Technology #2108) followed by incubation with horseradish peroxidase conjugated secondary antibodies. The blots were developed by the enhanced chemiluminesence technique (ECL kit, Amersham Biosciences).
To further investigate the specificity of compound 10 inside the cells, the ability of compound 10 to effect Src kinase phosphorylation within the same cells was measured. Src activity is regulated by phosphorylation at two distinct tyrosine residues. Autophosphorylation of Tyr416 in the kinase domain activates Src, while phosphorylation of Tyr527 in the C-terminal tail by the C-terminal Src kinase (Csk) blocks Src activity. Previous studies have shown that PTP1B can remove the inhibitory phosphate from pSrc527, while TC-PTP is capable of dephosphorylating pSrc416 (van Vilet et al., 2005; Bjorge, et al., 2000).
On the technique in general: In western blotting, separated proteins are transferred to a membrane and probed.

Assay [2] concerns CD4 T-cells recovered from patients with type 1 diabetes. Put plainly: pSTAT5 response to IL-2 in CD4 T-cells from type 1 diabetes patients. The assay is classed as cell-based, human. As to conditions: cells with elevated TC-PTP pre-treated with compound. As to the method:
An increase in expression of TC-PTP type 1 diabetic subject correlates with a decrease in STAT5 activation (Long et al., 2010). The protein expression levels of STAT5, JAK1, JAK3, and the negative regulator, TC-PTP, and CD4 T-cells of control and type 1 diabetic subjects were measured. […] No differences were found in STAT5, JAK3, or JAK1 protein expression levels between cells from the control group and the group diagnosed with type 1 diabetes. In contrast, TC-PTP expression was uniform in cells recovered from the control group but was increased overall in cells collected from patients with type 1 diabetes. […] This increased expression of TC-PTP correlated with decreased levels of pSTAT5 levels measured after exposure to IL-2.

Structures are written as SMILES. Read-outs that look alike come from different tables or passages of the source.

Sequence of PTP1B (P18031 whole entry, species assumed): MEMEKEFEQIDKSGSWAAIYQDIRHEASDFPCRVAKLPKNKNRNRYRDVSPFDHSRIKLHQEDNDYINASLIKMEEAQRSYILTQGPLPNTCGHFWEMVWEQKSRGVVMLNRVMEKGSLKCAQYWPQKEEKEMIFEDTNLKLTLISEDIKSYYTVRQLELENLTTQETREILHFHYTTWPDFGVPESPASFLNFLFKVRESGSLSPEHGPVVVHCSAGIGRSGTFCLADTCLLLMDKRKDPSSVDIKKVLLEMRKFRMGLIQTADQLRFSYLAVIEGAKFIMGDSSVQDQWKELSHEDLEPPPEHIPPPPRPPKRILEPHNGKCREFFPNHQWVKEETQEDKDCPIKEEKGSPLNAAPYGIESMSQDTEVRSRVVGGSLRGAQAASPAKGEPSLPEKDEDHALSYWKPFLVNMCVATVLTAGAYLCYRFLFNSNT
Sequence of LAR (P10586 whole entry, looked up, species assumed): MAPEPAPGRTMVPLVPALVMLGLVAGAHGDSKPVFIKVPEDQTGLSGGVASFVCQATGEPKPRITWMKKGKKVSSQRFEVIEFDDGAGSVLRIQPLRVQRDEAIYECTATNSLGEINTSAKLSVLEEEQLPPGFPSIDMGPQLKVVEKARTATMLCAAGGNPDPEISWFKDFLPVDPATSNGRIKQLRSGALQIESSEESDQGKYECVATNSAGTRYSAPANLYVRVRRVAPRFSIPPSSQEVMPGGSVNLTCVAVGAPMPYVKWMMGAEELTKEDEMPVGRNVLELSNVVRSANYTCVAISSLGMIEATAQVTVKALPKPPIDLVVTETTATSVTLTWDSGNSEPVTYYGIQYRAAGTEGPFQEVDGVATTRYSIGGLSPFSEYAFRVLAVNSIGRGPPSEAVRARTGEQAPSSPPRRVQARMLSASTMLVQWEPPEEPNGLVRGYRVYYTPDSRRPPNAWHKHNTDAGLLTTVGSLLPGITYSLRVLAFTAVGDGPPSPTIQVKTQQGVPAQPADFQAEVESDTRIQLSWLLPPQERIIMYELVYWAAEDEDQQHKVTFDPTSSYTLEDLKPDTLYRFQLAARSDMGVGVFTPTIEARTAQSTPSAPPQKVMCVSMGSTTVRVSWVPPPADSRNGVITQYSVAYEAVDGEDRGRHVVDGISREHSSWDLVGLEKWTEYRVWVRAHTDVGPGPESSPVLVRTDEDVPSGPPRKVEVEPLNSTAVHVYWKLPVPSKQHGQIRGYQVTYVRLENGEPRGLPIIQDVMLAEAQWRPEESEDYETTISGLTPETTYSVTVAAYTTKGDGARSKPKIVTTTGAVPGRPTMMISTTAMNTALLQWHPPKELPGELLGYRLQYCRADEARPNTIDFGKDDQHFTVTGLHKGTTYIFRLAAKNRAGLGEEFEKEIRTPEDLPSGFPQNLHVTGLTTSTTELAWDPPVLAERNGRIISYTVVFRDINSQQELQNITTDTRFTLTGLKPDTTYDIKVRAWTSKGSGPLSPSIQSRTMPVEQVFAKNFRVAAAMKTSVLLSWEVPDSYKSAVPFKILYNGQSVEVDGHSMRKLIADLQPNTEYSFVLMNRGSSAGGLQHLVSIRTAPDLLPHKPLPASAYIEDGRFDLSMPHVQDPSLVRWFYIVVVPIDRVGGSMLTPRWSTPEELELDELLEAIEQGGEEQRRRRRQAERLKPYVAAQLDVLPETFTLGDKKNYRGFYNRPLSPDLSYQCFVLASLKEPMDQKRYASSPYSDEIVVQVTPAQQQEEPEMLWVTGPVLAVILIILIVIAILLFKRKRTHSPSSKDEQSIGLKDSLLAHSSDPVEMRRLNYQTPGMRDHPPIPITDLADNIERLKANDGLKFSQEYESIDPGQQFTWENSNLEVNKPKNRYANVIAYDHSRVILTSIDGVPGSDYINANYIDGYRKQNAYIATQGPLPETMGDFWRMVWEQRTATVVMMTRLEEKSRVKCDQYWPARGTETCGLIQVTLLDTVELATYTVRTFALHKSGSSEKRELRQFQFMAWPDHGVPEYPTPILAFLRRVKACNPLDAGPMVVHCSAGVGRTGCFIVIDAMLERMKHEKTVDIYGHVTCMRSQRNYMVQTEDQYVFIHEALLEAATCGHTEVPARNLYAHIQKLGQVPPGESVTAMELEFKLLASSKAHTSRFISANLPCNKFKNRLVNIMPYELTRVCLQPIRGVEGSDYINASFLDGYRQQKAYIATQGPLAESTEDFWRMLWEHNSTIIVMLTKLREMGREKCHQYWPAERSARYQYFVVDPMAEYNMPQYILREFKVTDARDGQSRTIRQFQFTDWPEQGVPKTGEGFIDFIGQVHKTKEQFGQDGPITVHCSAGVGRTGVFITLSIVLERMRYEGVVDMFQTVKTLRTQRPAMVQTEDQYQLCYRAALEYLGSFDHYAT
Sequence of SHP2 (Q06124 whole entry, species assumed): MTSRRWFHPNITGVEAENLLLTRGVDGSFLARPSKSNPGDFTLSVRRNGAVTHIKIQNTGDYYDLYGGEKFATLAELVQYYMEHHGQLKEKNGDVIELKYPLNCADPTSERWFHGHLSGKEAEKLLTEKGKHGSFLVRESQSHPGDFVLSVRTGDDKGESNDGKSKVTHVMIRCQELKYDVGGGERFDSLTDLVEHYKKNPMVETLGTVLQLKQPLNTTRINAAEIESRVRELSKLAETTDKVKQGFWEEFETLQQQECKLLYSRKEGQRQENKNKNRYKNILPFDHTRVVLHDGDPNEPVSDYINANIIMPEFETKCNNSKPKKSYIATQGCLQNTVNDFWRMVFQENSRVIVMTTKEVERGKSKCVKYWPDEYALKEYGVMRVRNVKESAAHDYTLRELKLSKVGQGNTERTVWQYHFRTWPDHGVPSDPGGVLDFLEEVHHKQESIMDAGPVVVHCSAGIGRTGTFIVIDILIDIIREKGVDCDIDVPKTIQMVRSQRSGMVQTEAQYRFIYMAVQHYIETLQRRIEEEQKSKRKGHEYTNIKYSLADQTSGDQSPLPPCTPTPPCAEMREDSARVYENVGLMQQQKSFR
Sequence of Cdc14A (Q9UNH5 whole entry, species assumed): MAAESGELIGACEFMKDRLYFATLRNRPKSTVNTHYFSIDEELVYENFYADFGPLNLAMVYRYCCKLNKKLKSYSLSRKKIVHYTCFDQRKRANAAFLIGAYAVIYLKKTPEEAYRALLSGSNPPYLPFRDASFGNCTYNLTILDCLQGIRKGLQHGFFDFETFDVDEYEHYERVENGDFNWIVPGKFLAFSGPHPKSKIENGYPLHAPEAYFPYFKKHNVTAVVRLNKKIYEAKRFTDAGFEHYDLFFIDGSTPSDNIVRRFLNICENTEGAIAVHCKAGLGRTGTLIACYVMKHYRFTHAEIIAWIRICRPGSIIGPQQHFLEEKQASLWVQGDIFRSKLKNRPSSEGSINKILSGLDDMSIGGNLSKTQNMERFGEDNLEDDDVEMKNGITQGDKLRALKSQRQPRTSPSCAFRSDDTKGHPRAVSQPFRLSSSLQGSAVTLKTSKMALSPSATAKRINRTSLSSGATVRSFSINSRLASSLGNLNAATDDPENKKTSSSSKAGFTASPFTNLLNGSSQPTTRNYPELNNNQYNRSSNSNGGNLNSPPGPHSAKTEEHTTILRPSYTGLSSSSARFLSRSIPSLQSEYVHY
Sequence of PTPα (P18433 20-802): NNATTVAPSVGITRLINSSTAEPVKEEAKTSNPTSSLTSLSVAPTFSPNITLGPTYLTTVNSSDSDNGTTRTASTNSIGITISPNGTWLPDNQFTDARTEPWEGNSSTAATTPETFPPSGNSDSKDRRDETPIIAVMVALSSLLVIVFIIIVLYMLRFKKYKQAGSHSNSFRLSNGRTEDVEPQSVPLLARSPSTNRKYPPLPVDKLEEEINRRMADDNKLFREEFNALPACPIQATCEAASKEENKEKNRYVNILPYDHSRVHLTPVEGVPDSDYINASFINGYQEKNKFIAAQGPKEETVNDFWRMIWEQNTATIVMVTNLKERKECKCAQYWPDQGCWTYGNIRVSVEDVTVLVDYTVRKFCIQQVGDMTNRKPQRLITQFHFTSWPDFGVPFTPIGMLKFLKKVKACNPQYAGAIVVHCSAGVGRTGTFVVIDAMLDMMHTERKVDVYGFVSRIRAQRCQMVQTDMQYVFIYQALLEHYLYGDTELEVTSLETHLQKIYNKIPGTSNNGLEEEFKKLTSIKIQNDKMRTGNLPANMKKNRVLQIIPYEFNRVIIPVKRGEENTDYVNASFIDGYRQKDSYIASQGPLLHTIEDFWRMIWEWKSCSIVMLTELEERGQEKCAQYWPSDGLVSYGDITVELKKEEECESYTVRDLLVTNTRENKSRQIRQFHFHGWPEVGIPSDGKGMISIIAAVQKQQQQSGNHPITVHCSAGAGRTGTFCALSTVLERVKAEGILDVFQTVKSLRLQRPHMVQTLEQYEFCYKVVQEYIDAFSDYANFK
Sequence of VHX (Q9NRW4 whole entry): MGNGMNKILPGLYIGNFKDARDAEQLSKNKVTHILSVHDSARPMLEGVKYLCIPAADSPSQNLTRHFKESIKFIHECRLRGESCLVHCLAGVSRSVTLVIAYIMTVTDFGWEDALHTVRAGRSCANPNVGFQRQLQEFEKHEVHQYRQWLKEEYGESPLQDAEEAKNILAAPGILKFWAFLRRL
Sequence of LMWPTP (P24666 whole entry, species assumed): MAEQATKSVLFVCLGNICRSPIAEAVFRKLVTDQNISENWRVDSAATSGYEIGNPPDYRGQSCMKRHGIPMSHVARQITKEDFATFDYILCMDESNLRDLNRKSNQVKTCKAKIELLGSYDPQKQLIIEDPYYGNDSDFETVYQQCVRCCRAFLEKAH
Sequence of VHR (P51452 whole entry, species assumed): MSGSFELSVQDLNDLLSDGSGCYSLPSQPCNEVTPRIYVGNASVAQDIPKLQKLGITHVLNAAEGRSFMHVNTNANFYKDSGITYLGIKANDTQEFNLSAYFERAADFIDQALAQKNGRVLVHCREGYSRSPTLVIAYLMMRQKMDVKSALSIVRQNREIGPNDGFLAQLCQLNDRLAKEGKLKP

Consider `CCc1ccc(C(=O)NCCCCC(NC(=O)C(Cc2ccc(C(F)(F)P(=O)(O)O)cc2)NC(=O)C(Cc2ccccc2)NC(=O)COC2CC(C)CCC2C(C)C)C(N)=O)cc1` (centres unmarked) [Compound 10], for which the Ki on PTP1B (Table 3, Example 13, read-out: Ki (PTP1B)) was 34 ± 2.8 nM; at PTP1B (tight binding inhibition equation, Table 1, read-out: Ki for PTP1B), 23.1 ± 0.7 nM; on SHP2 it was > 1000 nM; at He-PTP, > 1000 nM; at Lyp, > 1000 nM; on FAP1, > 1000 nM. The Ki at PTP-Meg2, on PTPα, at LAR, at Cdc14A, on VHR and on VHX was > 1000 nM throughout. In addition, on LMWPTP, the Ki was > 1000 nM. Also, the “mode of inhibition of PTP1B” value on PTP1B (kinetic analysis) was “reversible and competitive inhibitor”. Also, the pSrc416 phosphorylation entry in assay [1] is “dose-dependent increase”. In addition, in assay [1], the pSrc527 phosphorylation result is given as “no significant change”. In addition, in assay [2], the “rescue of decreased response to IL-2 (pSTAT5)” value is recorded as “rescued in a concentration dependent manner”.
